Values quoted from earlier work, collected in patent US8535699B2, “Insect-repelling resin composition and extended-release insect-repelling resin molded product obtained therefrom” (Sumika Life Tech, Limited, priority 2009, dated 2013).

Conditions: at 20° C.

**Q.** Which Vapour pressure does the source give for `CC(C)=CC1C(C(=O)OCc2cccc(Oc3ccccc3)c2)C1(C)C` (centres unmarked) [Phenothrin] here?
**A.** 1.2×10^−6 mmHg

**Q.** For `CCOP(=O)(OCC)OCC` [Triethyl phosphate], which Vapour pressure is on record?
**A.** 0.3 mmHg
